Literature values, collected in US4235881A, “Method for producing high potency factor VIII” (priority 1978, dated 1980).

Test system: Factor VIII
Settings: hemophiliacs having diminished ability to synthesize Factor VIII

For “1-Deamino-8-D-Arginine Vasopressin [dDAVP]”, the “ability to synthesize Factor VIII” value is listed as “increased to normal levels”.
